Results published in PubChem BioAssay AID330 (DTP/NCI, 2004).
Inconclusive results and toxic doses are left out. Rule for the calls: active = survival T/C of 150% or more; inactive = T/C below 125% in these data.

Tested on: P388 leukemia ip, CD2F1 mice, survival T/C
Assay: NCI In Vivo Anticancer Drug Screen. Data for tumor model P388 Leukemia (intraperitoneal) in CD2F1 (CDF1) mice
Conditions: endpoint: median survival time, higher = longer survival
Outline: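 Mice carrying the transplanted tumor received test compound or vehicle. Survival was recorded in each group, and the value is the treated-group measurement divided by that of the vehicle-treated control group.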

Measured: T/C

O=C(O)c1c[nH]c2c(ccc3[nH]cc(C(=O)O)c(=O)c32)c1=O
inactive: dose: 60.0 mg/kg/injection, schedule: Q01DX005 (ip), vehicle: Klucel (hydroxypropylcellulose) (HPC) 105 % of control | dose: 120.0 mg/kg/injection, schedule: Q01DX005 (ip), vehicle: Klucel (hydroxypropylcellulose) (HPC) 102 % of control | dose: 240.0 mg/kg/injection, schedule: Q01DX005 (ip), vehicle: Klucel (hydroxypropylcellulose) (HPC) 92 % of control

CCOC(=O)Nc1cc(NC(=O)OCC)cc([N+](=O)[O-])c1
inactive: dose: 100.0 mg/kg/injection, schedule: Q04DX003 (ip), vehicle: saline with Tween-80 100 % of control | dose: 200.0 mg/kg/injection, schedule: Q04DX003 (ip), vehicle: saline with Tween-80 104 % of control | dose: 400.0 mg/kg/injection, schedule: Q04DX003 (ip), vehicle: saline with Tween-80 90 % of control

c1ccc(Nc2nnnn2C2CCCCC2)cc1
inactive: dose: 6.25 mg/kg/injection, schedule: Q01DX009 (ip), vehicle: saline 101 % of control | dose: 12.5 mg/kg/injection, schedule: Q01DX009 (ip), vehicle: saline 105 % of control | dose: 25.0 mg/kg/injection, schedule: Q01DX009 (ip), vehicle: saline 100 % of control | dose: 50.0 mg/kg/injection, schedule: Q01DX009 (ip), vehicle: saline 108 % of control

Nc1ccccc1C(=O)NCCCCCCN1CCN(c2cccc(Cl)c2)CC1
inactive: dose: 50.0 mg/kg/injection, schedule: Q01DX009 (ip), vehicle: saline with Tween-80 92 % of control | dose: 100.0 mg/kg/injection, schedule: Q01DX009 (ip), vehicle: saline with Tween-80 90 % of control | dose: 200.0 mg/kg/injection, schedule: Q01DX009 (ip), vehicle: saline with Tween-80 96 % of control

OCc1cccc2c1Oc1ccccc1S2
inactive: dose: 100.0 mg/kg/injection, schedule: Q01DX001 (ip), vehicle: saline with Tween-80 98 % of control | dose: 200.0 mg/kg/injection, schedule: Q01DX001 (ip), vehicle: saline with Tween-80 98 % of control | dose: 400.0 mg/kg/injection, schedule: Q01DX001 (ip), vehicle: saline with Tween-80 95 % of control

CCN(CC)CCCNc1cc(OC)c(Nc2ccccc2)c2cccnc12
inactive: dose: 3.12 mg/kg/injection, schedule: Q01DX005 (ip), vehicle: suspension in saline 112 % of control | dose: 6.25 mg/kg/injection, schedule: Q01DX005 (ip), vehicle: suspension in saline 100 % of control | dose: 12.5 mg/kg/injection, schedule: Q01DX005 (ip), vehicle: suspension in saline 99 % of control

N#CC(C(=O)C(=O)C(C#N)c1nc2ccccc2s1)c1nc2ccccc2s1 (configuration not stated)
inactive: dose: 60.0 mg/kg/injection, schedule: Q01DX005 (ip), vehicle: saline with Tween-80 92 % of control | dose: 120.0 mg/kg/injection, schedule: Q01DX005 (ip), vehicle: saline with Tween-80 101 % of control | dose: 240.0 mg/kg/injection, schedule: Q01DX005 (ip), vehicle: saline with Tween-80 103 % of control
